Reference: US9289400B2, “D3 dopamine receptor agonists to treat dyskinesia in parkinson's disease” (priority 2010, dated 2016)
Where two headings read alike, the source gives them in different places. Marks after values point to notes of the source that are not given here.

Assays:
D4.2 dopamine receptor = D4.2 dopamine receptor (Homo sapiens (Human), UniProt P21917, DEL265-296); assay type: cell-based
Method: The EC50 values for each receptor subtype is determined by fitting the data points using the Hill equation.
AtT-20 mouse pituitary cells were grown in Ham's F10 medium with 5% FBS, 10% heat-inactivated horse serum, 2 mM glutamine and 50 μg/ml gentamicin (Invitrogen, Carlsbad, Calif.). AtT-20 cells stabling expressing the human D2S, D2L, D3, and D4.2 and receptor were maintained in the above F10 culture media supplemented with 500 μg/ml G418 (Invitrogen). For electrophysiological characterization, cells were plated onto glass coverslips coated with 40 μg/ml poly L-lysine (Sigma-Aldrich). […] Physiol. […] Neurosci. […] Biophys. […] Neurosci.
Drug solutions were delivered to cells via a multi-barreled micropipette array. The current responses were normalized to the cell capacitance, to account for variation in cell size.
To compare the functional effects of the new class of D3 receptor agonists, PBZI (Table 2) and ES609 (Table 3) were tested on AtT-20 cells stably expressing human D3, D2S, D2L or D4.2.

D2L dopamine receptor = D2L dopamine receptor (Homo sapiens (Human), UniProt P14416); assay: GIRK channel activation, whole cell voltage clamp, AtT-20 cells stably expressing D2L; assay type: cell-based; conditions: for GIRK channel activation: agonist type: versus full agonist quinpirole
Method: The activation of the GIRK channels was measured electrophysiologically using whole cell voltage clamp recording (Kuzhikandathil et al., 2004, Mol. Cell. Neurosci. 26:144-155). The GIRK channel responses elicited with new ligands were compared to quinpirole, a classical full agonist of D2, D3 and D4 dopamine receptors. The adenylyl cyclase inhibition was determined using a commercially available ELISA assay (Westrich & Kuzhikandathil, 2007, Biochim. Biophys. Acta-Mol. Cell. Res. 1773:1747-1758).
In the first assay, whole cell voltage clamp recording is used to measure GIRK response to increasing concentrations of the lead compound (0.01 nM to 3,000 nM dose range). The EC50 values for each receptor subtype is determined by fitting the data points using the Hill equation.
AtT-20 mouse pituitary cells were grown in Ham's F10 medium with 5% FBS, 10% heat-inactivated horse serum, 2 mM glutamine and 50 μg/ml gentamicin (Invitrogen, Carlsbad, Calif.). AtT-20 cells stabling expressing the human D2S, D2L, D3, and D4.2 and receptor were maintained in the above F10 culture media supplemented with 500 μg/ml G418 (Invitrogen). For electrophysiological characterization, cells were plated onto glass coverslips coated with 40 μg/ml poly L-lysine (Sigma-Aldrich). The generation and characterization of the AtT-20 cells stably expressing various human dopamine receptors have been previously reported (Kuzhikandathil & Oxford, 2000, J. Gen. Physiol. 115:697-706; Kuzhikandathil et al., 1998, Mol. Cell. Neurosci. 12:390-402; Kuzhikandathil & Bartoszyk, 2006, Neuropharm. 51:873-884; Westrich & Kuzhikandathil, 2007, Biochim. Biophys. Acta-MCR 1773:1747-1758; Kuzhikandathil et al., 2004, Mol. Cell. Neurosci. 26:144-155; Westrich et al., 2010, Biochem. Pharmacol. 79:897-907).
(§1) Agonist-activated currents were measured by the whole-cell patch clamp technique in voltage clamp and current clamp mode as described previously (Kuzhikandathil & Oxford, 2000, J. Gen. Physiol. 115:697-706; Kuzhikandathil et al., 1998, Mol. Cell. Neurosci. 12:390-402; Kuzhikandathil & Bartoszyk, 2006, Neuropharm. 51:873-884; Westrich & Kuzhikandathil, 2007, Biochim. Biophys. Acta-MCR 1773:1747-1758; Kuzhikandathil et al., 2004, Mol. Cell. Neurosci. 26:144-155; Westrich et al., 2010, Biochem. Pharmacol. 79:897-907). Drug solutions were delivered to cells via a multi-barreled micropipette array. The current responses were normalized to the cell capacitance, to account for variation in cell size.
To compare the functional effects of the new class of D3 receptor agonists, PBZI (Table 2) and ES609 (Table 3) were tested on AtT-20 cells stably expressing human D3, D2S, D2L or D4.2. Functional efficacy was determined by assessing the ability of PBZI and ES609 to inhibit adenylyl cyclase or activate GIRK channels coupled to these “D2-like” dopamine receptors. The EC50 values of PBZI and ES609 for inhibiting adenylyl cyclase and activating GIRK channels were in the range of 0.2 nM to 30 nM for D3 receptors.

parental AtT-20 cells = assay: GIRK response in parental (non-transfected) AtT-20 cells; assay type: cell-based, mouse; conditions: 300 nM, no exogenous D3 receptor expression
Method: To determine whether a compound is an agonist of the D3 dopamine receptor the AtT-20 neuroendocrine cell line that stably expresses the human D3 receptors is used. In the initial screen, the ability of 300 nM lead compound to activate G-protein coupled inward rectifier potassium (GIRK) channels (FIG. 1) is measured using whole cell voltage clamp recording. The protocol has been previously used for performing whole cell voltage clamp and measuring agonist-induced GIRK response. The acute ligand-induced GIRK currents are compared to that elicited by equivalent concentration of native agonist dopamine or full agonist quinpirole. The specificity of the response is determined by measuring GIRK response elicited by the lead compound in non-transfected AtT-20 cells and also in the presence of D2-like dopamine receptor antagonist eticlopride and D3 receptor selective antagonist GR218231 ((+)-(2R)-1,2,3,4-tetrahydro-6-[[(4-methoxyphenyl)sulfonyl]methyl]-N,N-dipropyl-2-naphthalenamine). To be considered for further development, the lead compound should generate a GIRK response that is equal to or greater than that elicited by equivalent concentration (300 nM) of dopamine or quinpirole.
AtT-20 mouse pituitary cells were grown in Ham's F10 medium with 5% FBS, 10% heat-inactivated horse serum, 2 mM glutamine and 50 μg/ml gentamicin (Invitrogen, Carlsbad, Calif.). AtT-20 cells stabling expressing the human D2S, D2L, D3, and D4.2 and receptor were maintained in the above F10 culture media supplemented with 500 μg/ml G418 (Invitrogen). […]
as §1, with “Drug solutions were delivered to cells via a multi-barreled micropipette array. The current responses were normalized to the cell capacitance, to account for variation in cell size.” left out

D4.2 dopamine receptor, sequence (P21917 other isoform, or with tags, fused parts or gaps del 265-296): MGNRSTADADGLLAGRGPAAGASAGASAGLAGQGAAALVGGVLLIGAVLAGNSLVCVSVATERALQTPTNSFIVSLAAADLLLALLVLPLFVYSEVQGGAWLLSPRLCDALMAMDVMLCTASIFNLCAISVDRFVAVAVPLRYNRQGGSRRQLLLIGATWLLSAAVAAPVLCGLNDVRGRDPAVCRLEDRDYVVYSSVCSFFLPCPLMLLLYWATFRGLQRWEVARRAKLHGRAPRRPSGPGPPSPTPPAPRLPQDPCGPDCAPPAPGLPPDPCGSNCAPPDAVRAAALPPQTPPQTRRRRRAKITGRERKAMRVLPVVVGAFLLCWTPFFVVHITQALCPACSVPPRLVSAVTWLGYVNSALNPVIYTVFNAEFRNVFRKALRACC
D2L dopamine receptor, sequence (P14416 whole entry): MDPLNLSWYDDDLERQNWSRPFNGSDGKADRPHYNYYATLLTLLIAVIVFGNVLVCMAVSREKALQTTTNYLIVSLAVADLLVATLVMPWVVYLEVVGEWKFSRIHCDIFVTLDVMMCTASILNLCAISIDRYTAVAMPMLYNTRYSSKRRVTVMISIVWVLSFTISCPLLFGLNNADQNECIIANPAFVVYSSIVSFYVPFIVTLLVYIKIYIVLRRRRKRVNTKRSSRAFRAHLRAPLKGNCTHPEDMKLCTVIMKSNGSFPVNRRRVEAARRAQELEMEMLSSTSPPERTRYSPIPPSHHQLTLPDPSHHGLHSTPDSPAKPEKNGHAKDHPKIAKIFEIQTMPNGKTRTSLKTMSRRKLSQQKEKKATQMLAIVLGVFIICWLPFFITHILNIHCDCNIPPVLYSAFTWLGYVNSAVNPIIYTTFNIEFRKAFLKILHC

Row | SMILES | GIRK channel activation: agonist type (D4.2 dopamine receptor) | GIRK channel activation EC50 (D4.2 dopamine receptor; AtT-20 cells, D4.2) | GIRK channel activation Ratio of ES609 to quinpirole response (at 300 nM) (D4.2 dopamine receptor; D4.2, 300 nM) | GIRK response at 300 nM (D4.2 dopamine receptor; D4.2, 300 nM) | GIRK channel activation: agonist type (D4.2 dopamine receptor; listed as ES0609) | GIRK channel activation Ratio of ES609 to quinpirole response (at 300 nM) (D2L dopamine receptor; 300 nM) | GIRK channel activation: agonist type (D2L dopamine receptor) | GIRK channel activation: agonist type (D2L dopamine receptor; listed as ES0609) | GIRK currents in parental AtT-20 cells (parental AtT-20 cells) | GIRK currents in parental AtT-20 cells (parental AtT-20 cells; listed as ES 609) | GIRK channel activation Ratio of PBZI to quinpirole response (at 300 nM) (D4.2 dopamine receptor; D4.2, 300 nM) | GIRK channel activation Ratio of PBZI to quinpirole response (at 300 nM) (D2L dopamine receptor; 300 nM)
1 | CC(N)CCc1ccccc1Cl (stereo not drawn) [ES609] | elicited no response | No response | 0^†† | ^††300 nM ES609 elicits no GIRK response; but, 300 nM quinpirole elicits a full GIRK response. | no response | 0.32* | partial agonist | Partial | neither 300 nM PBZI (hatched bar) nor 300 nM ES609 (cross hatched bar) induced GIRK currents | did not elicit GIRK currents |  | 
2 | CCCN1CC[C@@H]2c3cc(O)ccc3CC[C@@H]21 [PBZI, (3aS,9bR)-3-propyl-1,2,3a,4,5,9b-hexahydrobenzo[e]indol-8-ol] | partial agonist |  |  |  |  |  | full agonist |  | neither 300 nM PBZI (hatched bar) nor 300 nM ES609 (cross hatched bar) induced GIRK currents |  | 0.35* | 0.75
